Data published in US8093231B2, “Sulfonylethyl phosphorodiamidates” (Telik, Inc., priority 2004, dated 2012).
Where two headings read alike, the source gives them in different places.

What was measured:
[1] = system: DLD-1 (colorectal adenocarcinoma); assay: Cytotoxicity/growth inhibition assay, DLD-1; assay type: cell-based, human; conditions: read-out: IC50 (DLD-1)
Outline: (§1)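 Test compounds in DMSO (0.1–200 μM; final DMSO 0.5%) added to freshly diluted cells (3×10^3 cells/mL MX-1 and DLD-1, 6×10^3 cells/mL LNCap), triplicate wells. Cultured ~three doubling times (3 days MX-1, 4 days DLD-1/LNCap). CellTiter-Glo luminescence, 15 min room temperature; growth expressed as % of DMSO solvent control.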

[2] = system: MX-1 (human breast cancer) tumor; assay: MX-1 xenograft assay, intraperitoneal administration; assay type: in vivo, athymic nu/nu mice; conditions: for activity in MX-1 xenograft assay / tumor growth inhibition compared to vehicle: 100 mg/Kg intraperitoneal once/day for 5, 9, or 14 days
Protocol: (§2) Female athymic nu/nu mice (Harlan, Indianapolis, Ind., U.S.A. or similar vendor), 6-8 weeks old (approximately 20 g), were implanted in the mammary fat pad of the right fore flank with 20-30 mg pieces of MX-1 (human breast cancer) tumor harvested from similar mice that had previously been implanted with the MX-1 tumor. Approximately 7-10 days after tumor transplantation, when the tumor weight was approximately 50-200 mg, the mice were assigned to treatment groups. […] All compounds were active in this assay, with tumor growth inhibition compared to vehicle between 5% (compound 171A) and 99% (compound 13A), with most compounds causing at least 30% tumor growth inhibition. […] Compound 13A was tested at 25, 50, or 100 mg/Kg for 5 or 9 days, causing tumor inhibition between 19% (25 mg/Kg for 5 days) and 99% (100 mg/Kg for 9 days). Compound 70A was tested at 50, 100, and 150 mg/Kg for 5 or 12 days, causing tumor inhibition between 16% (50 mg/Kg for 5 days) and 95% (150 mg/Kg for 12 days).

[3] = system: LNCap (prostate carcinoma); assay: Cytotoxicity/growth inhibition assay, LNCap; assay type: cell-based, human; conditions: read-out: IC50 (LNCap)
Outline: as §1

MX-1 (breast carcinoma) = assay: Cytotoxicity/growth inhibition assay, MX-1; assay type: cell-based, human; conditions: read-out: IC50 (MX-1)
Outline: as §1

[4] = system: HCT116 (human colon cancer) tumor; assay: HCT116 xenograft assay, intraperitoneal administration; assay type: in vivo, athymic nu/nu mice; conditions: for inhibition of tumor growth compared to vehicle: 100 mg/Kg intraperitoneal once/day for 11 days, measured 13 days after start; for activity in HCT116 xenograft assay: intraperitoneal once/day for 11 days
Protocol: Male athymic nu/nu mice, 6-8 weeks old (approximately 20 g), were implanted subcutaneously in the right fore flank with 20-30 mg pieces of HCT116 (human colon cancer) tumor harvested from similar mice that had previously been implanted with the HCT116 tumor. Approximately 7-10 days after tumor transplantation, when the tumor weight was approximately 50-200 mg, the mice were assigned to treatment groups. Groups of mice were treated with compounds 5A or 13A at 100 mg/Kg, or compound 70A at 150 mg/Kg, by intraperitoneal injection once/day for 11 days, with vehicle control. Tumor growth inhibition was measured 13 days after the start of treatment.

[5] = system: MiaPaCa-2 (human pancreatic cancer) tumor; assay: MiaPaCa-2 xenograft assay, oral administration; assay type: in vivo, athymic nu/nu mice; conditions: 200 mg/Kg for 7 days
[6] = system: MiaPaCa-2 (human pancreatic cancer) tumor; assay: MiaPaCa-2 xenograft assay, intraperitoneal administration; assay type: in vivo, athymic nu/nu mice; conditions: 100 mg/Kg intraperitoneal once/day for 14 days
Protocol: Male athymic nu/nu mice, 6-8 weeks old (approximately 20 g), were implanted subcutaneously in the right fore flank with 20-30 mg pieces of MiaPaCa-2 (human pancreatic cancer) tumor harvested from similar mice that had previously been implanted with the MiaPaCa-2 tumor. Approximately 7-10 days after tumor transplantation, when the tumor weight was approximately 50-200 mg, the mice were assigned to treatment groups. Groups of mice were treated with compound 13A or 70A at 100 mg/Kg by intraperitoneal injection once/day for 14 days, with vehicle control. Tumor growth inhibition was measured 15 days after the start of treatment.

[7] = system: MX-1 (human breast cancer) tumor; assay: MX-1 xenograft assay, oral administration; assay type: in vivo, athymic nu/nu mice
Protocol: as §2
A study similar to that described in In vivo Example 1 was performed using oral administration of compounds 13A and 70A. Groups of mice were treated with compound 13A at 50, 100, or 300 mg/Kg, or compound 70A at 100, 150, 200, or 250 mg/Kg, by gavage once/day for 5 days (with vehicle control). Tumor growth inhibition was measured 13 days after the start of treatment.

[8] = DLD-1 cells, 4 days culture, CellTiter-Glo, 0.1-200 μM tested
[9] = LNCap cells, 4 days culture, CellTiter-Glo, 0.1-200 μM tested
[10] = MX-1 cells, 3 days culture, CellTiter-Glo, 0.1-200 μM tested

## O=C(CS(=O)(=O)CCOP(=O)(N(CCCl)CCCl)N(CCCl)CCCl)N[C@@H](Cc1ccccc1)C(=O)O [Compound 15A, N-{2-[[2-[[bis[bis(2-chloroethyl)amino]phosphinyl]oxy]ethyl]sulfonyl]acetyl}-L-phenylalanine]
[1]; Homo sapiens, DLD-1, 96 h
  IC50: 13.7 µM
[2]
  activity in MX-1 xenograft assay: active
[3]; Homo sapiens, LNCaP, 96 h
  IC50: ≥ 200 µM
MX-1 (breast carcinoma); Homo sapiens, MX1, 72 h
  IC50: 23.6 µM

## O=C(c1ccco1)C1CCN(C(=O)c2ccc(CS(=O)(=O)CCOP(=O)(N(CCCl)CCCl)N(CCCl)CCCl)cc2)CC1 [Compound 171A]
[1]; [8]
  IC50: 6.1 µM
[2]
  activity in MX-1 xenograft assay: active
  tumor growth inhibition compared to vehicle: 5%
[3]; [9]
  IC50: 27.7 µM
MX-1 (breast carcinoma); [10]
  IC50: 6.1 µM

## CCCCS(=O)(=O)CCOP(=O)(N(CCCl)CCCl)N(CCCl)CCCl [Compound 5A]
[1]; [8]
  IC50: 6.6 µM
[2]
  activity in MX-1 xenograft assay: active
[3]; [9]
  IC50: 42.8 µM
[4]
  inhibition of tumor growth compared to vehicle: 10%
  activity in HCT116 xenograft assay: active
MX-1 (breast carcinoma); [10]
  IC50: 14.3 µM

## CCOC(=O)CNC(=O)c1ccc(CS(=O)(=O)CCOP(=O)(N(CCCl)CCCl)N(CCCl)CCCl)cc1 [Compound 172A, α-[[2-[[bis[bis(2-chloroethyl)amino]phosphinyl]oxy]ethyl]sulfonyl]-4-[(ethoxycarbonylmethyl)-aminocarbonyl]toluene]
[1]; Homo sapiens, DLD-1, 96 h
  IC50: 6.1 µM
[2]
  activity in MX-1 xenograft assay: active
[3]; Homo sapiens, LNCaP, 96 h
  IC50: 31.6 µM
MX-1 (breast carcinoma); Homo sapiens, MX1, 72 h
  IC50: 4.8 µM

## O=C(CS(=O)(=O)CCOP(=O)(N(CCCl)CCCl)N(CCCl)CCCl)NCCN1CCOCC1 [Compound 23A]
[1]; [8]
  IC50: 6.6 µM
[2]
  activity in MX-1 xenograft assay: active
[3]; [9]
  IC50: 47.5 µM
MX-1 (breast carcinoma); [10]
  IC50: 25.9 µM

## O=P(OCCS(=O)(=O)Cc1cccs1)(N(CCCl)CCCl)N(CCCl)CCCl [Compound 180A]
[1]; [8]
  IC50: 4.9 µM
[2]
  activity in MX-1 xenograft assay: active
[3]; [9]
  IC50: 16.8 µM
MX-1 (breast carcinoma); [10]
  IC50: 9.3 µM

## O=P(OCCS(=O)(=O)Cc1cccc(C(F)(F)F)c1)(N(CCCl)CCCl)N(CCCl)CCCl [Compound 133A]
[1]; [8]
  IC50: 2.6 µM
[3]; [9]
  IC50: 8.2 µM
MX-1 (breast carcinoma); [10]
  IC50: 2.7 µM

## O=C(CS(=O)(=O)CCOP(=O)(N(CCCl)CCCl)N(CCCl)CCCl)Nc1ccc([N+](=O)[O-])cc1 [Compound 20A]
[1]; [8]
  IC50: 2.8 µM
[3]; [9]
  IC50: 3.6 µM
MX-1 (breast carcinoma); [10]
  IC50: 4.3 µM

## CNC(=O)CS(=O)(=O)CCOP(=O)(N(CCCl)CCCl)N(CCCl)CCCl [Compound 13A, N-methyl-2-[[2-[[bis[bis(2-chloroethyl)amino]phosphinyl]oxy]ethyl]sulfonyl]acetamide]
[1]; Homo sapiens, DLD-1, 96 h
  IC50: 7.1 µM
[2]
  activity in MX-1 xenograft assay: active
  tumor growth inhibition compared to vehicle: 99%
[2]; intraperitoneal, 25 mg/Kg for 5 days
  tumor inhibition: 19%
[2]; intraperitoneal, 100 mg/Kg for 9 days
  tumor inhibition: 99%
[2]; intraperitoneal, range of doses and treatment times
  dose dependence of tumor inhibition: dose-dependent tumor inhibition
[3]; Homo sapiens, LNCaP, 96 h
  IC50: 53.5 µM
[5]
  activity in MiaPaCa-2 xenograft assay, oral: active
  inhibition of tumor growth: 82%
[6]
  activity in MiaPaCa-2 xenograft assay: active
[6]; measured 15 days after start
  inhibition of tumor growth compared to vehicle: 78%
[7]; 50 mg/Kg gavage once/day for 5 days, measured 13 days after start
  inhibition of tumor growth compared to vehicle: 63%
[7]; 300 mg/Kg gavage once/day for 5 days, measured 13 days after start
  inhibition of tumor growth compared to vehicle: 100%
[7]; gavage once/day for 5 days
  activity in MX-1 xenograft assay, oral: active
[7]; gavage once/day for 5 days, measured 13 days after start
  dose dependence of tumor inhibition, oral: dose-dependent tumor inhibition
[4]
  inhibition of tumor growth compared to vehicle: 43%
  activity in HCT116 xenograft assay: active
MX-1 (breast carcinoma); Homo sapiens, MX1, 72 h
  IC50: 11.7 µM

## CN(CCO)C(=O)c1ccc(CS(=O)(=O)CCOP(=O)(N(CCCl)CCCl)N(CCCl)CCCl)cc1 [Compound 158A]
[1]; [8]
  IC50: 17.5 µM
[3]; [9]
  IC50: 85.2 µM
MX-1 (breast carcinoma); [10]
  IC50: 35.4 µM

## CCNC(=O)c1ccc(CS(=O)(=O)CCOP(=O)(N(CCCl)CCCl)N(CCCl)CCCl)cc1 [Compound 163A]
[1]; [8]
  IC50: 4.8 µM
[3]; [9]
  IC50: 28.5 µM
MX-1 (breast carcinoma); [10]
  IC50: 4.8 µM

## N#Cc1ccc(S(=O)(=O)N[C@@H](CS(=O)(=O)CCOP(=O)(N(CCCl)CCCl)N(CCCl)CCCl)C(=O)NCc2ccccc2)cc1 [Compound 99A]
[1]; [8]
  IC50: 6.4 µM
[3]; [9]
  IC50: 33.5 µM
MX-1 (breast carcinoma); [10]
  IC50: 16.2 µM

## CS(=O)(=O)N[C@@H](CS(=O)(=O)CCOP(=O)(N(CCCl)CCCl)N(CCCl)CCCl)C(=O)NCc1ccccc1 [Compound 95A]
[1]; [8]
  IC50: 9.9 µM
[3]; [9]
  IC50: 46.6 µM
MX-1 (breast carcinoma); [10]
  IC50: 21.3 µM

## O=P(OCCS(=O)(=O)C1CCCCC1)(N(CCCl)CCCl)N(CCCl)CCCl [Compound 11A]
[1]; [8]
  IC50: 4 µM
[3]; [9]
  IC50: 18.1 µM
MX-1 (breast carcinoma); [10]
  IC50: 10.4 µM

## Cc1ncc(CS(=O)(=O)CCOP(=O)(N(CCCl)CCCl)N(CCCl)CCCl)c(CO)c1O [Compound 183A]
[1]; [8]
  IC50: 4.9 µM
[3]; [9]
  IC50: 42.1 µM
MX-1 (breast carcinoma); [10]
  IC50: 18.4 µM

## O=P(OCCS(=O)(=O)CCOCCS(=O)(=O)CCOP(=O)(N(CCCl)CCCl)N(CCCl)CCCl)(N(CCCl)CCCl)N(CCCl)CCCl [Compound 8B]
[1]; [8]
  IC50: 6.5 µM
[3]; [9]
  IC50: 28 µM
MX-1 (breast carcinoma); [10]
  IC50: 10.9 µM
